Test results reported in a compilation of properties of binary mixtures (doi:10.1016/j.jct.2022.106923).

Assay: xn = mol fraction of the nth substance listed
Details: 101.3 kPa

CC[n+]1ccn(C)c1C.F[B-](F)(F)F + CO
viscosity [mPa·s]
Details	293.15 K	298.15 K	303.15 K	308.15 K	313.15 K	318.15 K	323.15 K	328.15 K	333.15 K
x1 = 0.0165	0.863	0.803	0.75	0.701	0.658	0.619	0.583	0.55	0.522
x1 = 0.0364	0.999	0.925	–	0.801	0.752	0.706	–	0.626	0.59
x1 = 0.0608	1.27	1.177	1.096	–	0.953	0.893	0.839	0.79	0.749
x1 = 0.0915	1.45	–	1.26	–	1.086	1.012	–	–	0.816
x1 = 0.1313	–	1.77	–	–	1.4	1.3	–	–	–
x1 = 0.1848	2.75	2.5	2.28	2.09	–	1.77	1.63	1.52	–
x1 = 0.2607	4.43	–	3.6	3.28	2.99	2.74	2.54	2.34	2.17
x1 = 0.3768	9.29	8.18	7.17	6.85	6.15	–	5.01	–	4.13

CO + CC[n+]1ccn(C)c1C.F[B-](F)(F)F
x2 = 0
Details	viscosity [mPa·s]
293.15 K	0.57
298.15 K	0.532
303.15 K	0.498
313.15 K	0.439
318.15 K	0.414
323.15 K	0.39
328.15 K	0.37
333.15 K	0.351
